Here are results for two substances from US6770740B1, “Crosslinked DNA condesate compositions and gene delivery methods” (The Regents of the University of Michigan, priority 1999, dated 2004).

Data set [1] has as its system HepG2 cells. The experiment in a line: Nuclear targeted β-galactosidase (X-gal) count of transfected HepG2 cells. The format is cell-based. To be noted: HepG2, 48 h, NTβGal plasmid. The method, then:
(§1) The number of cells transfected in vitro was examined using a plasmid encoding nuclear targeted β-galactosidase followed by X-gal (5-bromo-4-chloro-3-indolyl-β-galactopyranoside) staining. HepG2 and COS 7 cells were transfected for 5 h as described above with either AlkCWK18 DNA, peptide II DNA condensates, or plasmid DNA and then grown in fresh media for an additional 43 h. After removing media, cells were fixed for 5 min in phosphate-buffered saline (PBS, pH 7.3) containing 1.25 vol/vol % glutaraldehyde and then stained by incubation with 0.05 wt/v % X-gal, 1 mM magnesium chloride, 10 mM potassium ferricyanide, and 10 mM potassium ferrocyanide in PBS. After 4 h at 37° C., the X-gal solution was removed and the nuclear stained blue cells were counted with a light microscope under ten power magnification by averaging the number of transfectants from nine fields. Values were analyzed for significance by one-way analysis of variance.

A further data set has as its system COS 7 cells. The experiment in a line: Nuclear targeted β-galactosidase (X-gal) count of transfected COS 7 cells. In kind it is cell-based. To be noted: COS 7, 48 h, NTβGal plasmid. The procedure:
as §1

For the next data set, the system named is plasmid DNA. The experiment in a line: Fluorescent dye (thiazole orange) displacement assay of peptide binding to DNA, Example 1. To be noted: corresponding to a charge ratio of 1.8:1. The procedure: Peptide DNA condensates were formed by adding 75 μg of DNA (pCMVL in 750 μl of 5 mM Hepes pH 7.4) to varying amounts of peptide (7.5 to 90 nmol in 750 μl of Hepes) while vortexing, followed by equilibration at RT for 1 h. Peptide binding to DNA was monitored by a fluorescent dye displacement assay (Wadhwa et al. 1997). A 1 μg aliquot of the peptide DNA condensate was diluted to 1 ml in Hepes containing 0.1 μM thiazole orange. The fluorescence of the intercalated dye was measured on an LS50B fluorimeter (Perkin Elmer, UK) in a microcuvette by exciting at 500 nm while monitoring emission at 530 nm.

For data set [2], the system named is HepG2 cells. The experiment in a line: Cell binding of 125I-DNA condensates, Example 1. The format is cell-based. To be noted: 5 h transfection, 10 μg 125I-DNA condensates. The procedure:
Iodinated plasmid DNA was prepared with specific activity of 300 nCi per μg of DNA as described previously (Teribesi et al., 1998). Prior to forming DNA condensates, the specific activity of the ^125I DNA was adjusted to 4.5 nCi per μg of DNA by combining with unlabeled plasmid. DNA condensates were prepared using AlkCWK18, PEG-SS-CWK18 or PEG-VS-CWK18 as described above. Peptide ^125I-DNA condensates (10 μg) were used to transfer HepG2 cells for 5 h according to the procedure described above. The radioactive media was removed, cells were washed with phosphate buffered saline, harvested with lysis buffer, and the cell-associated radioactivity was quantified by gamma counting.

Data set [3] in a line: QELS particle size and zeta potential of PEG-peptide DNA condensates and co-condensates, Example 1. To be noted: charge ratio of 1.8:1 or higher; 50 μg/ml DNA in Hepes. The format is physicochemical. The procedure: The particle size of peptide DNA condensates were analyzed at a DNA concentration of 50 μg/ml in Hepes by quasielastic light scattering (QELS). The particle surface change was determined by zeta potential analysis using a Brookhaven ZetaPlus™ (Brookhaven Instruments).
DNA co-condensates were prepared by add-mixing AlkCWK18 and PEG-VS-CWK18 in ratios ranging from 0 to 100 mol %, and condensing DNA at a charge ratio of 2.3:1 as described above. To establish the mol ratio of peptides bound to DNA, condensates were dialyzed in a fixed volume (0.5 ml) dialyzer for 75 h against water using a 100,000 MWCO membrane. Peptide DNA condensates in the retentate (0.5 ml) were dissociated by adding 50 μl of 5 M sodium chloride in 0.1% TFA. AlkCWK18 and PEG-VS-CWK18 were quantified by injecting 1 nmol of peptide (100 μl) onto analytical RP-HPLC eluted with 0.1% TFA and a gradient of acetonitrile (5 to 65% over 30 min) while detecting tryptophan by fluorescence (λex 280 nm, λem 350 nm). The peak integration areas were used to quantify AlkCWK18 and PEG-VS-CWK18 with reference to standard curves developed for each peptide.

Where no end group is shown, it is not given here. The star is where a group is joined. Carboxymethyl = O=C(O)C*

As to “Cys-Trp-Lys17-Cys (CWKKKKKKKKKKKKKKKKKC) [Peptide II]”, in the data set on HepG2 cells [1], the “more cells transduced (nuclear stained) vs. AlkCWK18” value is “approximately 9 fold”. Moreover, the “more cells positively stained vs. AlkCWK18” value in the data set with COS 7 cells is recorded as 4 fold.

In the case of “Alk-S-Cys-Trp-Lys18 (C(Carboxymethyl)WKKKKKKKKKKKKKKKKKK) [AlkCWK18]”, the “peptide:DNA stoichiometry at the asymptote of the dye displacement titration curve (relative DNA binding affinity)” value in the data set on plasmid DNA is on record as 0.3 nmol per μg of DNA. For the same substance, the “cell associated 125I-DNA, percent of dose” value with HepG2 cells [2] is recorded as “Approximately 14%”. In addition, the “mean diameter of DNA condensates” value in data set [3] is 60 nm.
